Test results published in patent US20240181000A1, “LGG-DERIVED PEPTIDES AND METHODS OF USE THEREOF” (Ohio State Innovation Foundation, priority 2021, published 2024).
Marks after values point to notes of the source that are not given here. No end group written: not given here.

Key:
cecal microbiota = experiment: Cecal microbiome analysis (peptides, ST infected); assay type: in vivo, chickens; details: for Relative Abundance (%) Acinetobacter / Relative Abundance (%) Blautia / Relative Abundance (%) Caproiciproducens / Relative Abundance (%) Enterobacteriaceae (unidentified) / Relative Abundance (%) Epulopiscium / Relative Abundance (%) Lachnospiraceae (unidentified) / Relative Abundance (%) Lachnospiraceae NK4A136 group / Relative Abundance (%) Lactobacillus / Relative Abundance (%) Sellimonas / Relative Abundance (%) [Clostridium] innocuum group / Relative Abundance (%) [Eubacterium] coprostanoligenes group / Relative abundance (%) Anaerotruncus / Relative abundance (%) Clostridium sensu stricto 1 / Relative abundance (%) Enterococcus / Relative abundance (%) Erysipelatoclostridium / Relative abundance (%) Escherichia-Shigella / Relative abundance (%) Flavonifractor / Relative abundance (%) Lachnospiraceae (uncultured) / Relative abundance (%) Oscillibacter / Relative abundance (%) Pediococcus / Relative abundance (%) Ruminiclostridium 5 / Relative abundance (%) Ruminiclostridium 9 / Relative abundance (%) Ruminococcus torques group: genus
Description: Cecal microbiome analysis: To evaluate the role P1, P2, and P4 (50 mg/kg) treatment on the cecal microbiome of chickens, 16S rRNA based metagenomic study was conducted as previously described. DNA was extracted from approximately 0.2 g of cecal content using PureLink™ Microbiome DNA Purification Kit (Thermofisher Scientific). After which, RNA was removed with the treatment of RNase A (2 μL of 100 mg/mL solution per sample: Qiagen). NanoDrop 2000c Spectrophotometer (ThermoFisher Scientific) was used to check the quality and measure the quantity of the DNA. The extracted DNA was used in 16S rRNA V4-V5 sequencing done at MCIC (mcic.osu.edu/genomics/illumina-sequencing). Amplicon libraries were prepared using IFU KAPA HiFi HotStart ReadyMixPCR Kit (Roche). PCR products were cleaned using Agencourt AMPure XP beads (BECKMAN COULTER Life Sciences). Nextera XT DNA Library Preparation Kit (Illumina) was used to generate Illumina library and sequencing done with Illumina MiSeq platform generating paired end 300-bp reads. QIIME 2 (Quantitative Insights Into Microbial Ecology) bioinformatics platform (qiime2.org/) was used to conduct metagenomic analysis. Quality control of the raw reads was performed using FastQC 0.11.8 (Babraham Bioinformatics). Trimmomatic-0.33 was used to trim the adaptor and other Illumina-specific sequences (www.usadellab.org/cms/?page=trimmomatic). After which trimmed sequences (fastq.gz) were then imported into QIIME 2 as a manifest file format (PairedEndManifestPhred33V2). DADA2 was then used for the feature table construction and additional filtering of sequences. Taxonomic analysis was performed using Naive Bayes classifiers trained on the Silva 132 99% OTUs (silva-132-99-nb-classifier.qza) database. Phylogenetic diversity was analyzed using align-to-tree-mafft-fasttree pipeline. Additionally, Shannon's diversity index (alpha diversity) and Bray-Curtis distance (beta diversity) were analyzed using core-metrics-phylogenetic pipeline (docs.qiime2.org/2019.7/tutorials/moving-pictures/). Alpha and beta diversity statistical significance were analyzed using Kruskal-Wallis and PERMANOVA tests (P<0.05), respectively. The statistical difference (P<0.05) in the taxonomic composition between the groups was determined using Mann Whitney Test.

ST = assay type: in vivo, chickens; details: for Reduction of percent of birds positive for ST in the liver: 50 mg/kg twice daily
Description: Efficacy of peptides in chickens: To assess the efficacy of peptides against ST in chickens, one-day-old specific pathogen free (SPF) layer chickens from a Salmonella free flock at The Ohio State University were obtained and provided with feed and water ad libitum. Chickens (n=10/group) were treated with P1, P2, or P4 at 50 mg/kg body weight twice-daily doses. Peptides were dissolved in water to reach final concentration of 50 mg/kg and orally administered from day 1 to day 7. Early intestinal colonization is important for poultry health and thus is why peptide treatment was begun at day 1. Birds were challenged with 10^4 CFU of nalidixic acid resistant ST on day 3. At day 10 [7 days post infection (dpi)] chickens were euthanized, and the cecum, liver, and spleen were collected to determine the peptide's ability to reduce ST infection. The cecum was suspended in PBS, homogenized, ten-fold serially diluted, and plated on XLT4 agar plates supplemented with 50 μg/ml nalidixic acid and incubated for 24 h at 37° C. The liver and spleen were individually suspended in PBS and the undiluted homogenized suspension was plated directly and incubated for 24 h at 37° C. One milliliter of the undiluted homogenized liver and spleen was enriched in 9 ml of tetrathionate broth (TTB) for 24 h at 37° C. After incubation they were plated as described above to enumerate ST in each tissue. The body weights of chickens were measured on the day of necropsy (day 10). An untreated positive control group (PC: infected but untreated) and a negative control group (NC: non infected and non-treated) were included in the study. A Mann-Whitney test was used to determine statistical significance (P<0.05) of treatment on ST load in cecum and on body weight.

commensal bacteria = experiment: Peptide activity against commensal bacteria; assay type: cell-based; details: at MICs
Description: Peptide activity against commensal bacteria: Peptides 1, 2, and 4 were used to assess if they would inhibit commensal microbes. The commensal bacteria used along with their culture requirements are described in Table 25. Peptides at their MICs were added to 100 μL of known concentration of commensal bacteria and incubated under their required conditions. OD600 of cultures was measured to assess the effect of peptides on bacterial growth.

| Substance | Relative Abundance (%) Acinetobacter (cecal microbiota) | Relative Abundance (%) Blautia (cecal microbiota) | Relative Abundance (%) Caproiciproducens (cecal microbiota) | Relative Abundance (%) Enterobacteriaceae (unidentified) (cecal microbiota) | Relative Abundance (%) Epulopiscium (cecal microbiota) | Relative Abundance (%) Lachnospiraceae (unidentified) (cecal microbiota) | Relative Abundance (%) Lachnospiraceae NK4A136 group (cecal microbiota) | Relative Abundance (%) Lactobacillus (cecal microbiota) | Relative Abundance (%) Sellimonas (cecal microbiota) | Relative Abundance (%) [Clostridium] innocuum group (cecal microbiota) | Relative Abundance (%) [Eubacterium] coprostanoligenes group (cecal microbiota) | Relative abundance (%) Anaerotruncus (cecal microbiota) | Relative abundance (%) Clostridium sensu stricto 1 (cecal microbiota) | Relative abundance (%) Enterococcus (cecal microbiota) | Relative abundance (%) Erysipelatoclostridium (cecal microbiota) | Relative abundance (%) Escherichia-Shigella (cecal microbiota) | Relative abundance (%) Flavonifractor (cecal microbiota) | Relative abundance (%) Lachnospiraceae (uncultured) (cecal microbiota) | Relative abundance (%) Oscillibacter (cecal microbiota) | Relative abundance (%) Pediococcus (cecal microbiota) | also measured |
| --- | --- | --- | --- | --- | --- | --- | --- | --- | --- | --- | --- | --- | --- | --- | --- | --- | --- | --- | --- | --- | --- |
| MLNERVK [Peptide P4, MLNERVK] | 0.00% | 1.60% | 0.00% | 4.54% | 0.00% | 44.19% | 0.53% | 7.01% | 0.57% | 0.00% | 0.00% | 0.48% | 0.00% | 0.00% | 3.51% | 3.16† % | 1.20% | *11.71% | 1.35% | 0.75% | Relative abundance of Lachnospiraceae (cecal microbiota; family, negative control 53%): 78%; Relative abundance (%) Ruminiclostridium 5 (cecal microbiota): 0.00%; Relative abundance (%) Ruminiclostridium 9 (cecal microbiota): 0.13† %; Relative abundance (%) Ruminococcus torques group (cecal microbiota): 19.27%; Reduction of percent of birds positive for ST in the liver (ST): 30%; Growth of Bacteroides thetaiotaomicron (commensal bacteria): no inhibition; Growth of E. coli Nissle 1917 and E. coli G58-1 (commensal bacteria): inhibited; Growth of Gram-positive commensal bacteria (commensal bacteria): No growth inhibition |
| PDENK [Peptide P2, PDENK] | 0.00% | 0.00% | 0.63% | 6.22% | 0.17% | 37.10% | 0.00% | 5.57% | 1.76% | 0.00% | 0.00% | 0.00% | 0.00% | 0.00% | 5.56% | 13.25% | 2.33% | 4.21% | 0.00% | 0.00% | Relative abundance (%) Ruminiclostridium 5 (cecal microbiota): 0.00%; Relative abundance (%) Ruminiclostridium 9 (cecal microbiota): 0.00† %; Relative abundance (%) Ruminococcus torques group (cecal microbiota): 23.19%; Reduction of percent of birds positive for ST in the liver (ST): 30%; Reduction of ST colonization in the cecum (ST; 50 mg/kg twice daily 7 days, day 10 (7 dpi)): 1.8 logs; Growth of Bacteroides thetaiotaomicron (commensal bacteria): no inhibition; Growth of E. coli Nissle 1917 and E. coli G58-1 (commensal bacteria): inhibited; Growth of Gram-positive commensal bacteria (commensal bacteria): No growth inhibition |
